Bounds are passed on as bounds.

Sequence of human RIP1 kinase domain (2-375) (Q13546 2-375): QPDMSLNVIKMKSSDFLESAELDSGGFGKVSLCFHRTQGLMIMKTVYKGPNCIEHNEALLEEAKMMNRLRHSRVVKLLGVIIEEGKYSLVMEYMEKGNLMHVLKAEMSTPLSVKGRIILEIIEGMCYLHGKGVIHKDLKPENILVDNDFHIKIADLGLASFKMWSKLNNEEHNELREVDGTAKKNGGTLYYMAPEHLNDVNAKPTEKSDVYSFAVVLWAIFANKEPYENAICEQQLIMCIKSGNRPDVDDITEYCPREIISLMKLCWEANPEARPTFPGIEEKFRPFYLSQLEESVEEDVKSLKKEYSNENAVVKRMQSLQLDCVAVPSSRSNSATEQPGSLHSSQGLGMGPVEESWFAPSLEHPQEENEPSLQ

This assay concerns the target human RIP1 kinase domain (2-375) (Homo sapiens (Human), UniProt Q13546). Briefly: RIP1 kinase inhibition biochemical assay (Transcreener ADP, fluorescence polarization). To be noted: Ki app from tight-binding Morrison equation; 50 nM enzyme, 50 uM ATP, 2 hours incubation. The procedure: RIP1 Kinase Inhibition Assays (Biochemical Assay)
The compounds of the present invention were tested for their capacity to inhibit RIP1K activity as described below.
The ability of the receptor interacting protein kinase (RIPK1) to catalyze the hydrolysis of adenosine-5′-triphosphate (ATP) is monitored using the Transcreener ADP (adenosine-5′-diphosphate) assay (BellBrook Labs). Purified human RIP1 kinase domain (2-375) (50 nM) derived from a baculovirus-infected insect cell expression system is incubated with test compounds for 2 hours in 50 mM Hepes buffer (pH 7.5) containing 30 mM MgCl2, 1 mM dithiothreitol, 50 uM ATP, 0.002% Brij-35, and 0.5% dimethyl sulfoxide (DMSO). Reactions are quenched by the addition of 1× Bell Brooks Stop buffer B (20 mM Hepes (ph7.5), 40 mM ethylenediaminetetraacetic acid and 0.02% Brij-35) containing an additional 12 mM EDTA and 55 ug/mL ADP2 antibody and 4 nM ADP-AlexaFluor® 633 tracer. The tracer bound to the antibody is displaced by the ADP generated during the RIP1K reaction, which causes a decrease in fluorescence polarization that is measured by laser excitation at 633 nm with a FP microplate reader M1000. Fractional activity was plotted against test article concentration. Using Genedata Screener software (Genedata; Basel, Switzerland), the data were fit to the tight-binding apparent inhibition constant (Ki^app) Morrison equation [Williams, J. W. and Morrison, J. F. (1979) The kinetics of reversible tight-binding inhibition. Methods Enzymol 63: 437-67]. The following equation was used to calculate fractional activity and Ki^app:
[formula] where [E]T and [I]T are the total concentrations of active enzyme and test article, respectively.
Exemplary compounds of the present invention are provided in Table 1 along with their physiochemical characterization and in vitro RIP1 kinase inhibitory activity data. “Method” in the first column of each table refers to the synthetic method(s) used to prepare each compound as shown in the Examples above. In certain examples, chiral column retention times (min) are provided for certain stereoisomers. Unless otherwise specified, the stereochemistry shown in each structure represents relative configuration of a single stereoisomer, and absolute configuration (i.e., “R” and/or “S”) is arbitrarily assigned. In some embodiments, where the Method is described to include the separation of stereoisomers, a single stereoisomer of a compound of Table 1 is provided.
(In fluorescence polarisation assays a small probe gives low polarisation when free and higher when bound to something large.)
`O=S(=O)(c1nc2n(n1)[C@H](c1ccccc1F)C[C@@H]2F)[C@@H]1CC1(F)F` (single isomer, unassigned) [Example 124] came in with a Ki of less than 5 nM.

`O=S(=O)(c1nc2n(n1)[C@H](c1ccccc1Cl)C[C@@H]2F)[C@@H]1CC1(F)F` (single isomer, unassigned) [Example 125] returned a Ki of less than 5 nM.

Take `O=S(=O)(c1nc2n(n1)[C@H](c1cc(F)ccc1F)C[C@@H]2F)[C@H]1CC1(F)F` (single isomer, unassigned) [Example 126]: the Ki was less than 5 nM.

Regarding `O=S(=O)(c1nc2n(n1)[C@H](c1cc(F)ccc1F)C[C@@H]2F)[C@@H]1CC1(F)F` (single isomer, unassigned) [Example 127], the Ki was found to be 6 nM.

Molecule `O=S(=O)(c1nc2n(n1)[C@H](c1cccc(F)c1F)C[C@@H]2F)[C@@H]1CC1(F)F` (single isomer, unassigned) [Example 128] returned a Ki of 10 nM.

In the case of `O=S(=O)(c1nc2n(n1)[C@H](c1ccccc1)C[C@@H]2F)[C@@H]1CC1(F)F` (single isomer, unassigned) [Example 131], the Ki came to 4 nM.

`O=S(=O)(c1nc2n(n1)[C@H](c1ccccc1F)C[C@@H]2F)C(F)(F)F` (single isomer, unassigned) [Example 133] came in with a Ki of 4 nM.

In turn, `O=S(=O)(c1nc2n(n1)[C@H](c1ccccc1Cl)C[C@@H]2F)C(F)(F)F` (single isomer, unassigned) [Example 134] had a Ki of 3 nM.

`O=S(=O)(c1nc2n(n1)[C@H](c1cccc(F)c1)C[C@@H]2F)C(F)(F)F` (single isomer, unassigned) [Example 135] gave a Ki of 4 nM.

Molecule `O=S(=O)(c1nc2n(n1)[C@H](c1cccc(F)c1F)C[C@@H]2F)C(F)(F)F` (single isomer, unassigned) [Example 136] yielded a Ki of less than 5 nM.

Molecule `O=S(=O)(c1nc2n(n1)[C@H](c1ccccc1)C[C@@H]2F)C(F)(F)F` (single isomer, unassigned) [Example 137] returned a Ki of 4 nM.

The molecule `O=S(=O)(c1nc2n(n1)[C@H](c1cc(F)ccc1F)C[C@@H]2F)C(F)(F)F` (single isomer, unassigned) [Example 138] came in with a Ki of less than 5 nM.

The molecule `O=S(=O)(c1nc2n(n1)[C@H](c1c(F)cccc1F)C[C@@H]2F)C(F)(F)F` (single isomer, unassigned) [Example 139] yielded a Ki of 5 nM.

The molecule `O=S(=O)(c1nc2n(n1)[C@@H](c1cccc(F)c1F)C[C@H]2F)C(F)(F)F` (single isomer, unassigned) [Example 140] showed a Ki of 540 nM.

Molecule `O=S(=O)(c1nc2n(n1)[C@H](c1cccc(F)c1)C[C@@H]2F)[C@H]1C[C@@H]1F` (single isomer, unassigned) [Example 141] showed a Ki of less than 5 nM.

`O=S(=O)(c1nc2n(n1)[C@H](c1cccc(F)c1)C[C@@H]2F)[C@@H]1C[C@H]1F` (single isomer, unassigned) [Example 142] had a Ki of less than 5 nM.

Molecule `O=S(=O)(c1nc2n(n1)[C@H](c1ccc(F)c(F)c1)C[C@@H]2F)[C@H]1C[C@@H]1F` (single isomer, unassigned) [Example 143] showed a Ki of 31 nM.

Regarding `O=S(=O)(c1nc2n(n1)[C@H](c1ccc(F)c(F)c1)C[C@@H]2F)[C@@H]1C[C@H]1F` (single isomer, unassigned) [Example 144], the Ki worked out at 9 nM.

In the case of `O=S(=O)(c1nc2n(n1)[C@H](c1ccccc1)C[C@@H]2F)[C@@H]1C[C@H]1F` (single isomer, unassigned) [Example 145], the Ki was 5 nM.

On to `O=S(=O)(c1nc2n(n1)[C@H](c1ccccc1)C[C@@H]2F)[C@H]1C[C@@H]1F` (single isomer, unassigned) [Example 146], for which the Ki stood at 4 nM.

In the case of `CC(F)(F)S(=O)(=O)c1nc2n(n1)[C@H](c1ccccc1)C[C@@H]2F` (single isomer, unassigned) [Example 149], the Ki was found to be 16 nM.

As to `CC1(S(=O)(=O)c2nc3n(n2)[C@H](c2ccccc2)C[C@@H]3F)CC1` (single isomer, unassigned) [Example 150], the Ki amounted to 21 nM.

In the case of `O=S(=O)(c1nc2n(n1)[C@H](c1ccccc1)C[C@@H]2F)C1(C(F)F)CC1` (single isomer, unassigned) [Example 155], the Ki was 4.8 nM.

Molecule `O=S(=O)(c1nc2n(n1)[C@H](c1ccccc1)C[C@@H]2F)C(F)(F)CO` (single isomer, unassigned) [Example 156] gave a Ki of 270 nM.

With `N#CC1(S(=O)(=O)c2nc3n(n2)[C@H](c2ccccc2)C[C@@H]3F)CC1` (single isomer, unassigned) [Example 157], the Ki amounted to 23 nM.

In turn, `C[C@@H](F)S(=O)(=O)c1nc2n(n1)[C@H](c1ccccc1)C[C@@H]2F` (single isomer, unassigned) [Example 159] gave a Ki of 15 nM.

Molecule `C[C@H](F)S(=O)(=O)c1nc2n(n1)[C@H](c1ccccc1)C[C@@H]2F` (single isomer, unassigned) [Example 160] yielded a Ki of 18 nM.

With `CCCS(=O)(=O)c1nc2n(n1)[C@H](c1ccccc1)C[C@@H]2F` (single isomer, unassigned) [Example 161], the Ki came out at 26 nM.

Take `O=S(=O)(c1nc2n(n1)[C@H](c1ccccc1)C[C@@H]2F)[C@H]1C[C@H](F)C1` (single isomer, unassigned) [Example 164]: the Ki was less than 5 nM.

On to `CC(C)(F)S(=O)(=O)c1nc2n(n1)[C@H](c1ccccc1)C[C@@H]2F` (single isomer, unassigned) [Example 165], for which the Ki was determined as 25 nM.

`O=S(=O)(c1nc2n(n1)[C@H](c1ccccc1)C[C@@H]2F)[C@H]1C[C@@H](CO)C1` (single isomer, unassigned) [Example 168]: the Ki turned out to be 530 nM.

For the molecule `O=S(=O)(c1nc2n(n1)[C@H](c1ccccc1)C[C@@H]2F)[C@H]1C[C@@H](CF)C1` (single isomer, unassigned) [Example 169], the Ki worked out at 52 nM.

Molecule `O=S(=O)(c1nc2n(n1)[C@H](c1ccccc1)C[C@@H]2F)C1(F)CC1` (single isomer, unassigned) [Example 178] had a Ki of 6 nM.

For `[O-][S@@+](c1nc2n(n1)[C@H](c1cccc(F)c1)C[C@@H]2F)C(F)F` (single isomer, unassigned) [Example 179], the Ki stood at 210 nM.

`[O-][S@@+](c1nc2n(n1)[C@H](c1ccccc1)C[C@@H]2F)C(F)(F)F` (single isomer, unassigned) [Example 180] gave a Ki of 300 nM.

`[O-][S@+](c1nc2n(n1)[C@H](c1ccccc1)C[C@@H]2F)C(F)(F)F` (single isomer, unassigned) [Example 181] returned a Ki of 4 nM.

With `[O-][S@+](c1nc2n(n1)[C@H](c1cccc(F)c1)C[C@@H]2F)C(F)F` (single isomer, unassigned) [Example 182], the Ki was 6 nM.

For `[O-][S@@+](CC(F)(F)F)c1nc2n(n1)[C@H](c1ccccc1)C[C@@H]2F` (single isomer, unassigned) [Example 183], the Ki is 4 nM.

In turn, `[O-][S@+](CC1CC1)c1nc2n(n1)[C@H](c1ccccc1)C[C@@H]2F` (single isomer, unassigned) [Example 184] showed a Ki of 130 nM.

Turning to `[O-][S@+](CC(F)(F)F)c1nc2n(n1)[C@H](c1ccccc1)C[C@@H]2F` (single isomer, unassigned) [Example 185], the Ki came out at 19 nM.

`[O-][S@@+](CC1CC1)c1nc2n(n1)[C@H](c1ccccc1)C[C@@H]2F` (single isomer, unassigned) [Example 186] had a Ki of 20 nM.

With `CC(C)[S@@+]([O-])c1nc2n(n1)[C@H](c1ccccc1)C[C@@H]2F` (single isomer, unassigned) [Example 187], the Ki worked out at 8 nM.

Regarding `CC[S@@+]([O-])c1nc2n(n1)[C@H](c1ccccc1)C[C@@H]2F` (single isomer, unassigned) [Example 188], the Ki came to 510 nM.

`CC(C)[S@+]([O-])c1nc2n(n1)[C@H](c1ccccc1)C[C@@H]2F` (single isomer, unassigned) [Example 189] displayed a Ki of 760 nM.

In turn, `CC[S@+]([O-])c1nc2n(n1)[C@H](c1ccccc1)C[C@@H]2F` (single isomer, unassigned) [Example 190] gave a Ki of 8 nM.

`CC(C)(C)[S@@+]([O-])c1nc2n(n1)[C@H](c1ccccc1)C[C@@H]2F` (single isomer, unassigned) [Example 191] registered a Ki of 5 nM.

`N#Cc1cccc([C@@H]2C[C@H](F)c3nc(S(=O)(=O)C(F)F)nn32)c1` (single isomer, unassigned) [Example 192]: the Ki came to 350 nM.

The values above are taken from patent US11072617B2, “Bicyclic sulfones and sulfoxides and methods of use thereof” (Genentech, Inc., priority 2017, dated 2021).
